The target of the assay is STK4 (MST1) (Homo sapiens (Human), UniProt Q13043). The assay can be described thus: Z-lyte biochemical IC50 assay (Invitrogen). As to conditions: ATP concentration matched the Km. The protocol:
STK4 (MST1), STK3 (MST2); STK24 (MST3) and MST4 Assays
Biochemical IC50s were measured at Invitrogen using Z-lyte technology. Briefly, for STK4, the 2×STK4 (MST1)/Ser/Thr 07 mixture was prepared in 50 mM HEPES pH 7.5, 0.01% BRIJ35, 10 mM MgCl2, 1 mM EGTA. The final 10 μL Kinase Reaction consisted of 6.25-160 ng STK4 (MST1) and 2 μM Ser/Thr 07 in 50 mM HEPES pH 7.5, 0.01% BRIJ-35, 10 mM MgCl2, 1 mM EGTA. After the 1 hour Kinase Reaction incubation, 5 μL of a 1:100000 dilution of Development Reagent A was added. Compounds were screened in a 10 point titration with 3-fold serial dilutions starting at a concentration of 10 μM. The biochemical IC50s against other STK family members were measured similarly. The ATP concentration used matched the Km for each kinase.

Chain of STK4 (MST1) (Q13043 whole entry): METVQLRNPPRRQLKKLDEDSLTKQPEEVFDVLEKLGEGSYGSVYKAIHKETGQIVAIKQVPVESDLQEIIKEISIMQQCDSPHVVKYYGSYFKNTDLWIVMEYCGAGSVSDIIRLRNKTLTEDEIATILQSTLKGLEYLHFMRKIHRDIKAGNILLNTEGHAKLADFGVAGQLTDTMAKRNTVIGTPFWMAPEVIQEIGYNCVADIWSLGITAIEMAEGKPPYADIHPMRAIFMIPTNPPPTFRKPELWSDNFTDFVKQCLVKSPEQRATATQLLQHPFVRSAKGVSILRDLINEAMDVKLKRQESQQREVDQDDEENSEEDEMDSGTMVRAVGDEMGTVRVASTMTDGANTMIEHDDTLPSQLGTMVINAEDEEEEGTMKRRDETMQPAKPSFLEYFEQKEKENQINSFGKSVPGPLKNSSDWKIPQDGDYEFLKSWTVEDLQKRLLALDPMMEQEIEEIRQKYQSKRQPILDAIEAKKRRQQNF

As usually defined, the IC50 is the concentration at which inhibition is half-maximal. Molecule `Cc1cc(N2CCOCC2)cc2[nH]c(-c3c(NC[C@@H](O)c4cccc(Cl)c4)cc[nH]c3=O)nc12` [BMS536924, reference compound] displayed a concentration for half-maximal inhibition (IC50) of 40 to 200 nM. Then `Nc1ncc(-c2cc(F)ccc2[N+](=O)[O-])cc1-c1ccc2c(c1)CCNC2=O` [Compound I-7, 6-(2-amino-5-(5-fluoro-2-nitrophenyl)pyridin-3-yl)-3,4-dihydroisoquinolin-1(2H)-one], with more than 900 nM; and `COc1ccncc1-c1cnc(N)c(-c2ccc3c(c2)CCNC3=O)c1` [Compound I-8, 6-(6-amino-4′-methoxy-[3,3′-bipyridin]-5-yl)-3,4-dihydroisoquinolin-1(2H)-one], with more than 900 nM; and `N#Cc1cc(-c2cc(-c3cc([N+](=O)[O-])ccc3F)cnc2N)ccc1O` [Compound I-11, 5-(2-amino-5-(2-fluoro-5-nitrophenyl)pyridin-3-yl)-2-hydroxybenzonitrile], with more than 900 nM. Molecule `Cn1cnc2c(-c3cnc(N)c(-c4ccc5c(c4)CCNC5=O)c3)cccc21` [Compound I-14, 6-(2-amino-5-(1-methyl-1H-benzo[d]imidazol-4-yl)pyridin-3-yl)-3,4-dihydroisoquinolin-1(2H)-one] registered a half-inhibitory concentration (IC50) of 40 to 200 nM.

Turning to `Nc1ncc(-c2cc(F)cc([N+](=O)[O-])c2)cc1-c1ccc2c(c1)CCNC2=O` [Compound I-17, 6-(2-amino-5-(3-fluoro-5-nitrophenyl)pyridin-3-yl)-3,4-dihydroisoquinolin-1(2H)-one], the IC50 was in the range of 40 to 200 nM. Molecule `Nc1ncc(-c2cc([N+](=O)[O-])cc(F)c2F)cc1-c1ccc2c(c1)CCNC2=O` [Compound I-18, 6-(2-amino-5-(2,3-difluoro-5-nitrophenyl)pyridin-3-yl)-3,4-dihydroisoquinolin-1(2H)-one] displayed an IC50 of 40 to 200 nM.

Molecule `NC(=O)c1ccc(-c2cc(-c3cc([N+](=O)[O-])ccc3F)cnc2N)cc1Cl` [Compound I-30, 4-(2-amino-5-(2-fluoro-5-nitrophenyl)pyridin-3-yl)-2-chlorobenzamide] gave an IC50 of 200 to 900 nM.

On to `NC(=O)c1ccc(-c2cc(-c3cc([N+](=O)[O-])ccc3F)cnc2N)cc1` [Compound I-31, 4-(2-amino-5-(2-fluoro-5-nitrophenyl)pyridin-3-yl)benzamide], for which the half-inhibitory concentration (IC50) lay within 200 to 900 nM. With `Nc1ncc(-c2cc([N+](=O)[O-])cnc2F)cc1-c1ccc2c(c1)CCNC2=O` [Compound I-39, 6-(6-amino-2′-fluoro-5′-nitro-[3,3′-bipyridin]-5-yl)-3,4-dihydroisoquinolin-1(2H)-one], the IC50 was 200 to 900 nM.

`Nc1ncc(-c2ccc3ncsc3c2)cc1-c1ccc2c(c1)CCNC2=O` [Compound I-44, 6-(2-amino-5-(benzo[d]thiazol-6-yl)pyridin-3-yl)-3,4-dihydroisoquinolin-1(2H)-one]: the half-inhibitory concentration (IC50) was in the range of 40 to 200 nM. Turning to `C#Cc1cc(F)c(-c2cnc(N)c(-c3ccc4c(c3)CCNC4=O)c2)cc1[N+](=O)[O-]` [Compound I-45, 6-(2-amino-5-(4-ethynyl-2-fluoro-5-nitrophenyl)pyridin-3-yl)-3,4-dihydroisoquinolin-1(2H)-one], the half-inhibitory concentration (IC50) lay in the range of 40 to 200 nM. Next, `CCOc1cc(S(=O)(=O)N(C)C2CC2)ccc1-c1cnc(N)c(-c2ccc3c(c2)CCNC3=O)c1` [Compound I-47, 4-(6-amino-5-(1-oxo-1,2,3,4-tetrahydroisoquinolin-6-yl)pyridin-3-yl)-N-cyclopropyl-3-ethoxy-N-methylbenzenesulfonamide]: less than 40 nM; `CC(C)Oc1cc(S(=O)(=O)N(C)C2CC2)ccc1-c1cnc(N)c(-c2ccc3c(c2)CCNC3=O)c1` [Compound I-48, 4-(6-amino-5-(1-oxo-1,2,3,4-tetrahydroisoquinolin-6-yl)pyridin-3-yl)-N-cyclopropyl-3-isopropoxy-N-methylbenzenesulfonamide]: less than 40 nM; `COc1cc(S(=O)(=O)NC2CC2)ccc1-c1cnc(N)c(-c2ccc3c(c2)CCNC3=O)c1` [Compound I-49, 4-(6-amino-5-(1-oxo-1,2,3,4-tetrahydroisoquinolin-6-yl)pyridin-3-yl)-N-cyclopropyl-3-methoxybenzenesulfonamide]: less than 40 nM.
